pEC50, pIC50: −log10 of the molar value.
Legend:
PBMC = test: Cytotoxicity against human PBMC after 5 days; format: cell-based; conditions: 120 h
Vero = test: Cytotoxicity against african green monkey Vero cells after 5 days; format: ADME, cell-based; conditions: Chlorocebus sabaeus, 120 h
[1] = tested on: Human immunodeficiency virus 1; test: Antiviral activity against HIV1 LAI infected in human PBM cells after 5 days; format: functional, organism-based; conditions: Human immunodeficiency virus 1, LAI, PBMC, 120 h
CCRF-CEM = test: Cytotoxicity against human CEM cells after 5 days; format: ADME, cell-based; conditions: 120 h

| pEC50 [1] | EC90 [1] [µM] | SMILES | pIC50 (PBMC) | pIC50 (Vero) | pIC50 (CCRF-CEM) |
| --- | --- | --- | --- | --- | --- |
| 5.77 | 8.5 | C#CCNc1nc(N)nc2c1ncn2[C@H]1C[C@H](N=[N+]=[N-])[C@@H](CO)O1 | < 4.00 | < 4.00 | < 4.00 |
| 4.22 | > 10 | CC(CO)Nc1nc(N)nc2c1ncn2[C@H]1C[C@H](N=[N+]=[N-])[C@@H](CO)O1 (some centres not stated) | < 4.00 | < 4.00 | < 4.00 |
| 6.30 | 4.3 | C=CCNc1nc(N)nc2c1ncn2[C@H]1C[C@H](N=[N+]=[N-])[C@@H](CO)O1 | < 4.00 | < 4.00 | < 4.00 |
| 4.28 | > 10 | CC(C)(CO)Nc1nc(N)nc2c1ncn2[C@H]1C[C@H](N=[N+]=[N-])[C@@H](CO)O1 | < 4.00 | < 4.00 | < 4.00 |
| 5.68 | 16.2 | [N-]=[N+]=N[C@H]1C[C@H](n2cnc3c(NCCO)nc(N)nc32)O[C@@H]1CO | < 4.00 | < 4.00 | < 4.00 |
| 5.82 | 8.8 | [N-]=[N+]=N[C@H]1C[C@H](n2cnc3c(NC4CC4)nc(N)nc32)O[C@@H]1CO | < 4.00 | < 4.00 | < 4.00 |
| 6.68 | 1.1 | CN(C)c1nc(N)nc2c1ncn2[C@H]1C[C@H](N=[N+]=[N-])[C@@H](CO)O1 | < 4.00 | < 4.00 | < 4.00 |
| 4.06 | > 10 | [N-]=[N+]=N[C@H]1C[C@H](n2cnc3c(NCCCCCO)nc(N)nc32)O[C@@H]1CO | < 4.00 | < 4.00 | < 4.00 |
| < 4.00 | > 100 | CNc1nc(Cl)nc2c1ncn2[C@H]1C[C@H](N=[N+]=[N-])[C@@H](CO)O1 | < 4.00 | < 4.00 | < 4.00 |

Continued, compound first:

| SMILES | pEC50 [1] | EC90 [1] [µM] | pIC50 (PBMC) | pIC50 (Vero) | pIC50 (CCRF-CEM) |
| --- | --- | --- | --- | --- | --- |
| C=CCNc1ncnc2c1ncn2[C@H]1C[C@H](N=[N+]=[N-])[C@@H](CO)O1 | 6.52 | 1.5 | 4.29 | < 4.00 | < 4.00 |
| C=CCN(C)c1nc(N)nc2c1ncn2[C@H]1C[C@H](N=[N+]=[N-])[C@@H](CO)O1 | 6.40 | 1.5 | < 4.00 | 4.49 | 4.57 |
| COc1nc(NC2CC2)c2ncn([C@H]3C[C@H](N=[N+]=[N-])[C@@H](CO)O3)c2n1 | 4.22 | > 100 | < 4.00 | < 4.00 | < 4.00 |
| [N-]=[N+]=N[C@H]1C[C@H](n2cnc3c(N)nc(F)nc32)O[C@@H]1CO | 4.34 | 94.7 | 4.52 | 4.46 | 4.52 |
| COc1nc(F)nc2c1ncn2[C@H]1C[C@H](N=[N+]=[N-])[C@@H](CO)O1 | < 4.00 | > 100 | 5.03 | < 4.00 | < 4.00 |
| COc1nc(OC)c2ncn([C@H]3C[C@H](N=[N+]=[N-])[C@@H](CO)O3)c2n1 | 4.88 | > 100 | < 4.00 | < 4.00 | < 4.00 |
| COc1nc(Cl)nc2c1ncn2[C@H]1C[C@H](N=[N+]=[N-])[C@@H](CO)O1 | 4.26 | > 100 | < 4.00 | < 4.00 | < 4.00 |
| [N-]=[N+]=N[C@H]1C[C@H](n2cnc3c(N)nc(Cl)nc32)O[C@@H]1CO | 4.30 | > 100 | 4.45 | < 4.00 | < 4.00 |
| [N-]=[N+]=N[C@H]1C[C@H](n2cnc3c(NC4CC4)nc(Cl)nc32)O[C@@H]1CO | 4.82 | 51.5 | 4.45 | < 4.00 | < 4.00 |
| [N-]=[N+]=N[C@H]1C[C@H](n2cnc3c(Cl)nc(F)nc32)O[C@@H]1CO | 5.59 | 10 | 5.14 | 4.66 | 4.88 |
| CN(C)c1nc(Cl)nc2c1ncn2[C@H]1C[C@H](N=[N+]=[N-])[C@@H](CO)O1 | < 4.00 | > 100 | < 4.00 | < 4.00 | < 4.00 |
| COc1nc(N)c2ncn([C@H]3C[C@H](N=[N+]=[N-])[C@@H](CO)O3)c2n1 | 4.91 | 39.6 | 4.46 | < 4.00 | < 4.00 |
| [N-]=[N+]=N[C@H]1C[C@H](n2ccc(=O)[nH]c2=O)O[C@@H]1CO [NAVURIDINE] | 6.80 | 0.6 | < 4.00 | 4.59 | 4.16 |
| Cc1cn([C@H]2C[C@H](N=[N+]=[N-])[C@@H](CO)O2)c(=O)[nH]c1=O [ZIDOVUDINE] |  | 0.02 | < 4.00 |  |  |

From ChEMBL document CHEMBL1153164, “Synthesis and evaluation of 3'-azido-2',3'-dideoxypurine nucleosides as inhibitors of human immunodeficiency virus” (Bioorg Med Chem Lett, 2010)
